From patent US20190092804A1, “URACYL SPIROOXETANE NUCLEOSIDES” (Janssen Sciences Ireland Unlimited Company, priority 2012, published 2019)
Like-named read-outs stand apart in the source and are kept apart here.

Tests used:
[1] = test system: JFH1-HCVcc in primary human hepatocytes; assay type: cell-based, HCV (JFH1); human hepatocytes; conditions: 3 days
Method: Primary human hepatocytes (PHH) were prepared from patients undergoing partial hepatectomy for metastases or benign tumors. Fresh human hepatocytes were isolated from encapsulated liver fragments using a modification of the two-step collagenase digestion method. Briefly, encapsulated liver tissue was placed in a custom-made perfusion apparatus and hepatic vessels were cannulated with tubing attached multichannel manifold. The liver fragment was initially perfused for 20 min with a prewarmed (37° C.) calcium-free buffer supplemented with ethylene glycol tetraacetic acid (EGTA) followed by perfusion with a prewarmed (37° C.) buffer containing calcium (CaCl2), H2O2) and collagenase 0.05% for 10 min. Then, liver fragment was gently shaken to free liver cells in Hepatocyte Wash Medium. Cellular suspension was filtered through a gauze-lined funnel. Cells were centrifuged at low speed centrifugation. The supernatant, containing damaged or dead hepatocytes, non parenchymal cells and debris was removed and pelleted hepatocytes were re-suspended in Hepatocyte Wash Medium. Viability and cell concentration were determined by trypan blue exclusion test.
Cells were resuspended in complete hepatocyte medium consisting of William's medium (Invitrogen) supplemented with 100 IU/L insulin (Novo Nordisk, France), and 10% heat inactivated fetal calf serum (Biowest, France), and seeded at a density 1.8×10^6 viable cells onto 6 well plates that had been precoated with a type I collagen from calf skin (Sigma-Aldrich, France) The medium was replaced 16-20 hours later with fresh complete hepatocyte medium supplemented with hydrocortisone hemisuccinate (SERB, Paris, France), and cells were left in this medium until HCV inoculation. The cultures were maintained at 37° C. in a humidified 5% CO2 atmosphere.
The PHHs were inoculated 3 days after seeding. JFH1-HCVcc stocks were used to inoculate PHHs for 12 hours, at a multiplicity of infection (MOI) of 0.1 ffu per cell. After a 12-hours incubation at 37° C., the inoculum was removed, and monolayers were washed 3 times with phosphate-buffered saline and incubated in complete hepatocyte medium containing 0.1% dimethylsufoxide as carrier control, 100 IU/ml of IFNalpha as […] or else increasing concentrations of compound 8a. The cultures then were maintained during 3 days.
Total RNA was prepared from cultured cells or from filtered culture supernatants using the RNeasy or Qiamp viral RNA minikit respectively (Qiagen SA, Courtaboeuf, France) according to the manufacturer's recommendations. HCV RNA was quantified in cells and culture supernatants using a strand-specific reverse real-time PCR technique described previously (Carrière M and al 2007):
Reverse transcription was performed using primers described previously located in the […] region of HCV genome, tag-RC1 (5′-[…]-3′) and RC21 (5′-[…]-3′) for the negative and positive strands, respectively. After a denaturation step performed at 70° C. for 8 min, the RNA template was incubated at 4° C. for 5 min in the presence of 200 ng of tag-RC1 primer and 1.25 mM of each deoxynucleoside triphosphate (dNTP) (Promega, Charbonnieres, France) in a total volume of 12 μl.
Reverse transcription was carried out for 60 min at 60° C. in the presence of 20 U RNaseOut™ (Invitrogen, Cergy Pontoise, France) and 7.5 U Thermoscript™ reverse transcriptase (Invitrogen), in the buffer recommended by the manufacturer. An additional treatment was applied by adding 1 μl (2U) RNaseH (Invitrogen) for 20 min at 37° C.
The first round of nested PCR was performed with 2 μl of the cDNA obtained in a total volume of 50 μl, containing 3 U Taq polymerase (Promega), 0.5 mM dNTP, and 0.5 μM RC1 (5′-[…]-3′) and RC21 primers for positive-strand amplification, or Tag (5′-[…]-3′) and RC21 primers for negative strand amplification. […]

[2] = test system: HCV type 1b replicon (Huh-7 luc/neo cells); assay: Replicon assay (A), Huh-Luc luciferase read-out; assay type: cell-based, HCV genotype 1b; conditions: Hepatitis C virus, Huh-7, 72 h, read-out: EC50 (μM) (HCV)
Excerpt: The compounds of formula I were examined for activity in the inhibition of HCV-RNA replication in a cellular assay. […] The cellular assay was based on a bicistronic expression construct, as described by Lohmann et al. (1999) Science vol. 285 pp. 110-113 with modifications described by Krieger et al. (2001) Journal of Virology 75: 4614-4624, in a multi-target screening strategy.
In essence, the method was as follows. The assay utilized the stably transfected cell line Huh-7 luc/neo (hereafter referred to as Huh-Luc). This cell line harbors an RNA encoding a bicistronic expression construct comprising the wild type NS3-NS5B regions of HCV type 1b translated from an internal ribosome entry site (IRES) from encephalomyocarditis virus (EMCV), preceded by a reporter portion (FfL-luciferase), and a selectable marker portion (neo^R, neomycine phosphotransferase). […]
The replicon cells were plated in 384-well plates in the presence of the test and control compounds which were added in various concentrations. Following an incubation of three days, HCV replication was measured by assaying luciferase activity (using standard luciferase assay substrates and reagents and a Perkin Elmer ViewLux™ ultraHTS microplate imager). […] The inhibitory activity of the compound on luciferase activity was monitored on the Huh-Luc cells, enabling a dose-response curve for each test compound. […]

[3] = test system: HCV 1b bicistronic subgenomic luciferase reporter replicon clone ET or Huh-Luc-Neo; assay: Replicon assays (B), Assay 2; assay type: cell-based; conditions: Hepatitis C virus, 72 h, 3-day incubation, 2×10^4 cells, 96-well, n = 4, read-out: Average EC50 value (8a), Assay 2
Method: The anti-HCV activity of compound 8a was tested in cell culture with replicon cells generated using reagents from the Bartenschlager laboratory (the HCV 1b bicistronic subgenomic luciferase reporter replicon clone ET or Huh-Luc-Neo). The protocol included a 3-day incubation of 2×10^4 replicon cells in a 96-well format in a six-point 1:5 dilution series of the compound. Dose response curves were generated based on the luciferase read-out.

[4] = test system: HCV 1b bicistronic subgenomic luciferase reporter replicon clone ET; assay: Replicon assays (B), Assay 1; assay type: cell-based; conditions: Hepatitis C virus, 72 h; 3-day incubation, 2500 cells 384-well luciferase (variation: 3000 cells 96-well qRT-PCR); n = 8
Method: The anti-HCV activity of compound 8a was tested in cell culture with replicon cells generated using reagents from the Bartenschlager laboratory (the HCV 1b bicistronic subgenomic luciferase reporter replicon clone ET). The protocol included a 3-day incubation of 2500 replicon cells in a 384-well format in a nine-point 1:4 dilution series of the compound. Dose response curves were generated based on the firefly luciferase read-out. In a variation of this assay, a 3 day incubation of 3000 cells in a 96-well format in a nine-point dilution series was followed by qRT-PCR Taqman detection of HCV genome, and normalized to the cellular transcript, RPL13 (of the ribosomal subunit RPL13 gene) as a control for compound inhibition of cellular transcription.

[5] = Cytotoxicity (CC50) in Huh-7; assay type: cell-based; conditions: human, Huh-7 cells; Huh-7 cytotoxicity
Excerpt: The in vitro antiviral activity against HCV of the compounds of formula I can be tested in a cellular HCV replicon system based on Lohmann et al. (1999) Science 285:110-113, with the further modifications described by Krieger et al. (2001) Journal of Virology 75: 4614-4624 (incorporated herein by reference), which is further exemplified in the examples section. This model, while not a complete infection model for HCV, is widely accepted as the most robust and efficient model of autonomous HCV RNA replication currently available. It will be appreciated that it is important to distinguish between compounds that specifically interfere with HCV functions from those that exert cytotoxic or cytostatic effects in the HCV replicon model, and as a consequence cause a decrease in HCV RNA or linked reporter enzyme concentration. Assays are known in the field for the evaluation of cellular cytotoxicity based for example on the activity of mitochondrial enzymes using fluorogenic redox dyes such as resazurin. Furthermore, cellular counter screens exist for the evaluation of non-selective inhibition of linked reporter gene activity, such as firefly luciferase. […]

[6] = test system: HCV G1a; assay: In vivo efficacy assay, humanized hepatocyte mouse model; parameters: species or system HCV G1a-infected PXB-mice; conditions: PXB-mice
Method: The in vivo efficacy of compound 8a and CAS-1375074-52-4 was determined in a humanized hepatocyte mouse model (PBX-mouse) as previously described in Inoue et. al (Hepatology. 2007 April; 45(4):921-8) and Tenato et. al. (Am J Pathol 2004; 165-901-912) with the following specification: Test animals: HCV […]-infected PXB-mice, male or female, >70% replacement index of human hepatocytes. Dosing was performed p.o for 7 days at doses indicated below wherein QD represents a single dose per day, BID represents two doses per day. Efficacy of compound 8a was compared to CAS-1375074-52-4.

[7] = test system: HCV 1b bicistronic subgenomic luciferase reporter replicon clone ET or Huh-Luc-Neo; assay: Replicon assays (B), Assay 3; assay type: cell-based; conditions: Hepatitis C virus, 72 h, 3-day incubation, 8×10^3 or 2×10^4 cells, 96-well, n = 1
Method: The anti-HCV activity of compound 8a was tested in cell culture with replicon cells generated using reagents from the Bartenschlager laboratory (the HCV 1b bicistronic subgenomic luciferase reporter replicon clone ET or Huh-Luc-Neo). The protocol included either a 3-day incubation of 8×10^3 cells or 2×10^4 cells in a 96-well format in an eight-point 1:5 dilution series of the compound. Dose response curves were generated based on the luciferase read-out.

IFNα
positive strand HCV-RNA levels in primary human hepatocytes ([1]; Exp. 1, 100 IU/mL, HCV control 3.56): 1.48 10^6 HCV RNA copies/μg of total RNA
positive strand HCV-RNA levels in primary human hepatocytes ([1]; Exp. 2, 100 IU/mL, HCV control 5.53): 1.59 10^6 HCV RNA copies/μg of total RNA

CC(C)O[P@@]1(=O)OC[C@H]2O[C@@H](n3ccc(=O)[nH]c3=O)[C@@]3(CCO3)[C@@H]2O1 [Compound 8a]
positive strand HCV-RNA levels in primary human hepatocytes ([1]; Exp. 1, 0.195 μM, HCV control 3.56): 2.18 10^6 HCV RNA copies/μg of total RNA
positive strand HCV-RNA levels in primary human hepatocytes ([1]; Exp. 1, 0.78 μm, HCV control 3.56): 2.25 10^6 HCV RNA copies/μg of total RNA
positive strand HCV-RNA levels in primary human hepatocytes ([1]; Exp. 1, 3.12 μm, HCV control 3.56): 1.09 10^6 HCV RNA copies/μg of total RNA
positive strand HCV-RNA levels in primary human hepatocytes ([1]; Exp. 1, 12.5 μm, HCV control 3.56): 2.17 10^6 HCV RNA copies/μg of total RNA
positive strand HCV-RNA levels in primary human hepatocytes ([1]; Exp. 1, 50 μm, HCV control 3.56): 0.94 10^6 HCV RNA copies/μg of total RNA
positive strand HCV-RNA levels in primary human hepatocytes ([1]; Exp. 2, 0.195 μM, HCV control 5.53): 1.12 10^6 HCV RNA copies/μg of total RNA
positive strand HCV-RNA levels in primary human hepatocytes ([1]; Exp. 2, 0.78 μm, HCV control 5.53): 1.3 10^6 HCV RNA copies/μg of total RNA
positive strand HCV-RNA levels in primary human hepatocytes ([1]; Exp. 2, 3.12 μm, HCV control 5.53): 0.94 10^6 HCV RNA copies/μg of total RNA
positive strand HCV-RNA levels in primary human hepatocytes ([1]; Exp. 2, 12.5 μm, HCV control 5.53): 1.3 10^6 HCV RNA copies/μg of total RNA
positive strand HCV-RNA levels in primary human hepatocytes ([1]; Exp. 2, 50 μm, HCV control 5.53): 1.33 10^6 HCV RNA copies/μg of total RNA
EC50 [2]: 0.13 µM
EC50 [3]: 17.5 µM
EC50 [4]: 57 µM
CC50 [5]: > 100 µM
log drop HCV viral RNA after dosing for 7 days ([6]; 50 mg/kg BID p.o.): clear log drop
log drop HCV viral RNA after dosing for 7 days ([6]; 100 mg/kg BID p.o.): most pronounced log drop effect in viral RNA
log drop HCV viral RNA after dosing for 7 days ([6]; 100 mg/kg QD p.o.): clear log drop
log drop HCV viral RNA after dosing for 7 days ([6]; 200 mg/kg QD p.o.): clear log drop
EC50 [7]: > 100 µM
